Experiments:
[1] = test system: MOLM-14 D835Y (endogenous FLT3 ITD and transfected FLT3 D835Y); assay: MOLM-14 D835Y cell proliferation assay (CellTiter-Glo); type: cell-based; conditions: Homo sapiens, MOLM-14, 72 h; 3 d growth, GMean
In short: (§1)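 Three-day proliferation at 37 °C/5% CO2 of FLT3-ITD MOLM-14 lines with D835Y or F691L mutation, seeded 1×10^4 per well. Compounds at eight points, top 1 μM final, 0.2% DMSO. ATP luminescence (CellTiter-Glo) gives IC50.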

[2] = test system: MOLM-14 F691L (endogenous FLT3 ITD and transfected FLT3 F691L); assay: MOLM-14 F691L cell proliferation assay (CellTiter-Glo); type: cell-based; conditions: Homo sapiens, MOLM-14, 72 h; 3 d growth, GMean
In short: as §1

BA/F3-FLT3-ITD + D835Y = molecular target: T1, BA/F3-FLT3-ITD + D835Y (Homo sapiens, UniProt P36888, D835Y, cells depend on it, form not given); assay: Engineered BA/F3 cell growth assay, FLT3 ITD/D835Y; type: cell-based, murine; conditions: 3 d growth
T1 sequence (P36888 with tags, fused parts or gaps INS600HVDFREYEYD/D835Y): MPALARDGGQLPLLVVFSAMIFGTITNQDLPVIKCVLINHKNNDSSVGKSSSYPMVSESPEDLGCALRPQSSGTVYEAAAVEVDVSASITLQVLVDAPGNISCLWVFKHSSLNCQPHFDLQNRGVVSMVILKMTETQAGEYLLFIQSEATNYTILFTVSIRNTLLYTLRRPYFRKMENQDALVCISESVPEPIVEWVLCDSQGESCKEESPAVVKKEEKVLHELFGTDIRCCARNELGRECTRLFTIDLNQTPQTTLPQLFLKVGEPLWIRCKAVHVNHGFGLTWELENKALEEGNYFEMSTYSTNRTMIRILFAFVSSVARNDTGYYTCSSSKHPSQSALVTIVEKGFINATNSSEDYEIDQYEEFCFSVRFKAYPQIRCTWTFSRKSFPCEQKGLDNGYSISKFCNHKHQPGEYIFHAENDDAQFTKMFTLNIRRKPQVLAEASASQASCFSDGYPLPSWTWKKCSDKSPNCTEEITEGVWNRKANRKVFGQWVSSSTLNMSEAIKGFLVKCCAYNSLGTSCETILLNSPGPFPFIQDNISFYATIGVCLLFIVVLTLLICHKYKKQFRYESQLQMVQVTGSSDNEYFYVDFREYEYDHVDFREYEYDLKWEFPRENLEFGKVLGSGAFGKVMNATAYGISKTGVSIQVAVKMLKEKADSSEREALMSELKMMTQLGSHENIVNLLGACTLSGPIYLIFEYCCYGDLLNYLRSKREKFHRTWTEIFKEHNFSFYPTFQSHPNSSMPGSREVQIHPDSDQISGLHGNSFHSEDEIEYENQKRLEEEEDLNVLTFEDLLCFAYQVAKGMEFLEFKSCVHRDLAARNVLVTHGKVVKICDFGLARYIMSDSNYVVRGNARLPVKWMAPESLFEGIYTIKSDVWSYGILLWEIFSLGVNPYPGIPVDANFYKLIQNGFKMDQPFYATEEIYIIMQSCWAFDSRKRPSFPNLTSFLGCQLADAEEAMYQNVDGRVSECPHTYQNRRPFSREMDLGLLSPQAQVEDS
In short: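 IC50 derived from CellTiter-Glo ATP luminescence after 3 days at 37 °C, 5% CO2, over eight 1:3 dilutions from 1 μM (0.2% DMSO final). Cells: IL-3-independent murine Ba/F3 expressing full-length FLT3 ITD/D835Y, 1×10^4 per well.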

Row | IC50 [1] | IC50 [2] | GI50 (BA/F3-FLT3-ITD + D835Y) | SMILES
1 | 0.0001 to 10 µM | 0.0001 to 10 µM | 0.0001 to 10 µM | Cc1cc(-c2cnc3[nH]c(-c4ccccc4)cc3c2)ccc1CC(=O)Nc1cccc(C(F)(F)F)c1 [Compound P-0001, 2-[2-methyl-4-(2-phenyl-1H-pyrrolo[2,3-b]pyridin-5-yl)phenyl]-N-[3-(trifluoromethyl)phenyl]acetamide]
2 | 0.0001 to 10 µM | 0.0001 to 10 µM | 0.0001 to 10 µM | O=C(Cc1ccc(-c2cnc3[nH]c(-c4ccccc4)cc3c2)cn1)Nc1ccnc(C(F)(F)F)c1 [Compound P-0005, 2-[5-(2-phenyl-1H-pyrrolo[2,3-b]pyridin-5-yl)-2-pyridyl]-N-[2-(trifluoromethyl)-4-pyridyl]acetamide]
3 | 0.0001 to 10 µM | 0.0001 to 10 µM | 0.0001 to 10 µM | Cn1cnc(Nc2ncc(-c3ccc(CC(=O)Nc4cc(C(F)(F)F)ccn4)c(F)c3)cn2)c1 [Compound P-0096, 2-[2-fluoro-4-[2-[(1-methylimidazol-4-yl)amino]pyrimidin-5-yl]phenyl]-N-[4-(trifluoromethyl)-2-pyridyl]acetamide]
4 | 0.0001 to 10 µM | 0.0001 to 10 µM | 0.0001 to 10 µM | Cn1cc(Nc2ncc(-c3ccc(CC(=O)Nc4ccnc(C5CC5)c4)cc3)cn2)cn1 [Compound P-0097, N-(2-cyclopropyl-4-pyridyl)-2-[4-[2-[(1-methylpyrazol-4-yl)amino]pyrimidin-5-yl]phenyl]acetamide]
5 | 0.0001 to 10 µM | 0.0001 to 10 µM | 0.0001 to 10 µM | Cn1cc(Nc2ncc(-c3ccc(CC(=O)Nc4ccnc(C5CC5)c4)c(F)c3)cn2)cn1 [Compound P-0098, N-(2-cyclopropyl-4-pyridyl)-2-[2-fluoro-4-[2-[(1-methylpyrazol-4-yl)amino]pyrimidin-5-yl]phenyl]acetamide]
6 | 0.0001 to 10 µM |  | 0.0001 to 10 µM | Cn1cnc(Nc2ncc(-c3ccc(CC(=O)Nc4cnc(F)c(C(C)(F)F)c4)cc3F)cn2)c1 [Compound P-0170, N-[5-(1,1-difluoroethyl)-6-fluoro-3-pyridyl]-2-[3-fluoro-4-[2-[(1-methylimidazol-4-yl)amino]pyrimidin-5-yl]phenyl]acetamide]
7 | 0.0001 to 10 µM |  | 0.0001 to 10 µM | COc1ncc(NC(=O)Cc2cc(F)c(-c3cnc4[nH]nc(C)c4c3)cc2F)cc1C(F)(F)F [Compound P-0176, 2-[2,5-difluoro-4-(3-methyl-1H-pyrazolo[3,4-b]pyridin-5-yl)phenyl]-N-[6-methoxy-5-(trifluoromethyl)-3-pyridyl]acetamide]
8 | 0.0001 to 10 µM |  | 0.0001 to 10 µM | COc1ccc(-c2cc3cc(-c4ccc(CC(=O)Nc5cc(C(F)(F)F)ccn5)cc4F)cnc3[nH]2)cn1 [Compound P-0191, 2-[3-fluoro-4-[2-(6-methoxy-3-pyridyl)-1H-pyrrolo[2,3-b]pyridin-5-yl]phenyl]-N-[4-(trifluoromethyl)-2-pyridyl]acetamide]
9 | 0.0001 to 10 µM |  | 0.0001 to 10 µM | N#Cc1ccc(-c2cc3cc(-c4ccc(CC(=O)Nc5cncc(C(F)(F)F)c5)cc4F)cnc3[nH]2)cn1 [Compound P-0195, 2-[4-[2-(6-cyano-3-pyridyl)-1H-pyrrolo[2,3-b]pyridin-5-yl]-3-fluoro-phenyl]-N-[5-(trifluoromethyl)-3-pyridyl]acetamide]

Further lines, the molecule ahead of its results:

Row | SMILES | IC50 [1] | IC50 [2] | GI50 (BA/F3-FLT3-ITD + D835Y)
10 | O=C(Cc1ccc(-c2cnc3[nH]c(-c4ccccc4)cc3c2)c(F)c1)Nc1cccc(C(F)(F)F)c1 [Compound P-0003, 2-[3-fluoro-4-(2-phenyl-1H-pyrrolo[2,3-b]pyridin-5-yl)phenyl]-N-[3-(trifluoromethyl)phenyl]acetamide] | 0.0001 to 10 µM | 0.0001 to 10 µM | 0.0001 to 10 µM
11 | O=C(Cc1ccc(-c2cnc3[nH]c(-c4ccccc4)cc3c2)cc1F)Nc1ccnc(C(F)(F)F)c1 [Compound P-0004, 2-[2-fluoro-4-(2-phenyl-1H-pyrrolo[2,3-b]pyridin-5-yl)phenyl]-N-[2-(trifluoromethyl)-4-pyridyl]acetamide] | 0.0001 to 10 µM | 0.0001 to 10 µM | 0.0001 to 10 µM
12 | Cc1ncc(NC(=O)Cc2ccc(-c3cnc(Nc4cnn(C)c4)nc3)cc2F)cc1C(F)(F)F [Compound P-0091, 2-[2-fluoro-4-[2-[(1-methylpyrazol-4-yl)amino]pyrimidin-5-yl]phenyl]-N-[6-methyl-5-(trifluoromethyl)-3-pyridyl]acetamide] | 0.0001 to 10 µM | 0.0001 to 10 µM | 0.0001 to 10 µM
13 | Cn1cc(Nc2ncc(-c3ccc(CC(=O)Nc4cnc(Cl)c(C(F)(F)F)c4)c(F)c3)cn2)cn1 [Compound P-0092, N-[6-chloro-5-(trifluoromethyl)-3-pyridyl]-2-[2-fluoro-4-[2-[(1-methylpyrazol-4-yl)amino]pyrimidin-5-yl]phenyl]acetamide] | 0.0001 to 10 µM | 0.0001 to 10 µM | 0.0001 to 10 µM
14 | CC(C)c1cc(NC(=O)Cc2ccc(-c3cnc(Nc4cnn(C)c4)nc3)cc2F)ccn1 [Compound P-0094, 2-[2-fluoro-4-[2-[(1-methylpyrazol-4-yl)amino]pyrimidin-5-yl]phenyl]-N-(2-isopropyl-4-pyridyl)acetamide] | 0.0001 to 10 µM | 0.0001 to 10 µM | 0.0001 to 10 µM
15 | Cn1cc(Nc2ncc(-c3ccc(CC(=O)Nc4ccc(C(F)(F)F)nc4)cc3)cn2)cn1 [Compound P-0095, 2-[4-[2-[(1-methylpyrazol-4-yl)amino]pyrimidin-5-yl]phenyl]-N-[6-(trifluoromethyl)-3-pyridyl]acetamide] | 0.0001 to 10 µM | 0.0001 to 10 µM | 0.0001 to 10 µM
16 | Cc1ncc(NC(=O)Cc2ccc(-c3cnc(Nc4cn(C)cn4)nc3)cc2F)cc1C(F)(F)F [Compound P-0099, 2-[2-fluoro-4-[2-[(1-methylimidazol-4-yl)amino]pyrimidin-5-yl]phenyl]-N-[6-methyl-5-(trifluoromethyl)-3-pyridyl]acetamide] | 0.0001 to 10 µM | 0.0001 to 10 µM | 0.0001 to 10 µM
17 | Cn1cnc(Nc2ncc(-c3ccc(CC(=O)Nc4cnc(Cl)c(C(F)(F)F)c4)c(F)c3)cn2)c1 [Compound P-0100, N-[6-chloro-5-(trifluoromethyl)-3-pyridyl]-2-[2-fluoro-4-[2-[(1-methylimidazol-4-yl)amino]pyrimidin-5-yl]phenyl]acetamide] | 0.0001 to 10 µM | 0.0001 to 10 µM | 0.0001 to 10 µM
18 | Cn1cc(Nc2ncc(-c3ccc(CC(=O)Nc4cnnc(Cl)c4)cc3)cn2)cn1 [Compound P-0151, N-(6-chloropyridazin-4-yl)-2-[4-[2-[(1-methylpyrazol-4-yl)amino]pyrimidin-5-yl]phenyl]acetamide] | 0.0001 to 10 µM |  | 0.0001 to 10 µM
19 | COc1cc(NC(=O)Cc2ccc(-c3cnc(Nc4cnn(C)c4)nc3)cc2)ccn1 [Compound P-0153, N-(2-methoxy-4-pyridyl)-2-[4-[2-[(1-methylpyrazol-4-yl)amino]pyrimidin-5-yl]phenyl]acetamide] | 0.0001 to 10 µM |  | 0.0001 to 10 µM
20 | Cc1ncc(NC(=O)Cc2ccc(-c3cnc4[nH]nc(C)c4c3)c(F)c2)cc1C(F)(F)F [Compound P-0172, 2-[3-fluoro-4-(3-methyl-1H-pyrazolo[3,4-b]pyridin-5-yl)phenyl]-N-[6-methyl-5-(trifluoromethyl)-3-pyridyl]acetamide] | 0.0001 to 10 µM |  | 0.0001 to 10 µM
21 | N#Cc1cc(-c2cc3cc(-c4ccc(CC(=O)Nc5cc(C(F)(F)F)ccn5)cc4F)cnc3[nH]2)ccn1 [Compound P-0194, 2-[4-[2-(2-cyano-4-pyridyl)-1H-pyrrolo[2,3-b]pyridin-5-yl]-3-fluoro-phenyl]-N-[4-(trifluoromethyl)-2-pyridyl]acetamide] | 0.0001 to 10 µM |  | 0.0001 to 10 µM

— patent publication US10160747B2, “Compounds and methods for kinase modulation, and indications therefor” (Plexxikon Inc., priority 2016, dated 2018)
